Measurements as given in patent publication US20210379056A1, “SUBSTITUTED PYRAZOLE FUSED RING DERIVATIVE, PREPARATION METHOD THEREFOR, AND APPLICATION THEREOF” (Applied Pharmaceutical Science, Inc., priority 2018, published 2021).

What was measured:
[1] = target: T1, Ret wt (Homo sapiens, UniProt P07949); experiment: HTRF kinase activity test, RET wild type; assay type: biochemical; details: Table 3; read-out: RET Enzyme (wild type) IC50
T1 construct: purchased Invitrogen PV3082
Protocol: This test combined peptide substrates and a single proprietary monoclonal antibody with HTRF technology, which was a highly sensitive and stable technology for detecting molecular interactions of proteins. The enzyme phosphorylates the substrate, then the Eu-labeled antibody binds to the phosphorylated substrate, and streptavidin-XL665 binds to all substrates. The TR-FRET signal was generated by the HTRF principle. […] Based on this, the inhibitory effect was evaluated.
(§1) The other compounds were diluted 3-fold gradiently with DMSO from the 10 mM stock solution to a total of 10 concentrations respectively.
(§2) Adding 4 volumes of distilled water to 1 volume of enzyme buffer 5×; 5 mM MgCl2; 1 mM DTT.
(§3) b) centrifuging the compound plate for 1 minute at 1000 g.
(§4) c) sealing the test board.
(§5) f) adding 4 μl of 1× kinase buffer to each well of the test plate, centrifuging the sample plate at 1000 g for 30 seconds, and placing it at room temperature for 10 minutes.
(§6) g) preparing a solution of 5× TK-substrate-biotin ([…]) in kinase buffer and 5×ATP (50 μM) in kinase buffer respectively.
(§7) h) starting the reaction by adding 2 μl STK-substrate-biotin and 2 μl ATP (prepared in the step g).
(§8) i) centrifuging the sample plate for 30 seconds at 1000 g. Sealing the test board and placing it at room temperature for 30 minutes.
(§9) ) centrifuging at 1000 g for 30 seconds and placing it at room temperature for 1 hour.
(§10) The inhibition rate % was calculated as follows:
(§11) Inhibition rate %=[1−(fluorescence signal value of test compound−fluorescence signal value of positive control)/(average ratio of negative control−average ratio of positive control)]*100%
(§12) Ratio: generated from the measured fluorescence signal value
(§13) The average ratio of the positive control is the average ratio of the positive control (200 nM AT13148) in the sample plate;
(§14) The average ratio of negative controls is the average ratio of negative controls (0.1% DMSO) in the sample plate.
(§15) GraphPad 6.0 was used to fit the logarithm of the % inhibition rate and the compound concentration into a nonlinear regression (dose response−variable slope) to calculate the IC50 value.

[2] = target: T2, RET (V804M) (Homo sapiens, UniProt P07949, V804M); experiment: HTRF kinase activity test, RET V804M; assay type: biochemical; details: Table 3; read-out: RET Enzyme (V804M) IC50
T2 construct: purchased Signalchem R02-12GG
T2 sequence (P07949 29-1114 V804M): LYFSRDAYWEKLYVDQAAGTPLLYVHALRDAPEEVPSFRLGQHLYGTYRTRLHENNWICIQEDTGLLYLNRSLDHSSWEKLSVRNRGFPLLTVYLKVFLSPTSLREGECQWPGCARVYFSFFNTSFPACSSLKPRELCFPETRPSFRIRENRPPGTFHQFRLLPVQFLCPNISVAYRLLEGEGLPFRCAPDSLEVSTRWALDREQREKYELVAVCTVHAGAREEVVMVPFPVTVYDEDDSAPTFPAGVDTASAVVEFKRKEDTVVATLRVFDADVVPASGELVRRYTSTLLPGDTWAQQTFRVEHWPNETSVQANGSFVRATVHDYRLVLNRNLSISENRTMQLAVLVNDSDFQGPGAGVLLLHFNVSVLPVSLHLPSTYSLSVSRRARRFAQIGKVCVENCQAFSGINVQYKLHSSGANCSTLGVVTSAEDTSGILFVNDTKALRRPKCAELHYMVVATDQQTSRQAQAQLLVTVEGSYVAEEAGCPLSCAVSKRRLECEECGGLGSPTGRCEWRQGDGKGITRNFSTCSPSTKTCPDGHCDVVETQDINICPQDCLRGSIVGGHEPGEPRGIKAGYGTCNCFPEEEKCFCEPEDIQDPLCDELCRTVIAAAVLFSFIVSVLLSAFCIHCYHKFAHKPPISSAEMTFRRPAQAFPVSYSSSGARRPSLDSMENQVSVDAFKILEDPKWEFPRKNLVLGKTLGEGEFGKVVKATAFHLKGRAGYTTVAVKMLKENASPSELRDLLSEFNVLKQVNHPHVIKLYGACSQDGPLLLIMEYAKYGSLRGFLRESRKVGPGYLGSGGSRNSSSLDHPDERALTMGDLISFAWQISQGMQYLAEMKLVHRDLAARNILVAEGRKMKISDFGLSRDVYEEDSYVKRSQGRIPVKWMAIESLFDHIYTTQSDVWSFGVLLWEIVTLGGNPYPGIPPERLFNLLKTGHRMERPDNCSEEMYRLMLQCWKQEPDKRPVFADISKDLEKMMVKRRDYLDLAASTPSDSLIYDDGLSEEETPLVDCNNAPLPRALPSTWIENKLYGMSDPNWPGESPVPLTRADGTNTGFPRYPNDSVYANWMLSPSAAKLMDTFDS
Protocol: This test combined peptide substrates and a single proprietary monoclonal antibody with HTRF technology, which was a highly sensitive and stable technology for detecting molecular interactions of proteins. The enzyme phosphorylates the substrate, then the Eu-labeled antibody binds to the phosphorylated substrate, and streptavidin-XL665 binds to all substrates. The TR-FRET signal was generated by the HTRF principle. Once the inhibitor (test compound) was added, a weaker TR-FRET signal is obtained. Based on this, the inhibitory effect was evaluated.
as §1, §2
a) Transferring 10 nl of the compound dilution (prepared in 5.2) to each well of the test plate (784075, Greiner);
as §3, §4
d) preparing 5×Ret wt (0.2 ng/μl) and 5×Ret V804L (0.5 ng/μl)/5×Ret V804M (0.5 ng/μl) in 1× kinase buffer respectively.
e) adding 2 μl of 5×Ret wt or 2 μl of Ret V804L/RET V804M to a 384-well test plate (784075, Greiner).
as §5, §6, §7, §8
j) preparing 4×Sa-XL 665 (250 nM) in HTRF detection buffer.
k) adding 5 μl of Sa-XL 665 and 5 μl of TK-antibody-Cryptate (prepared in the step i) to each well of the test plate.
as §9
m) reading the fluorescence signal values at 615 nm (Cryptate) and 665 nm (XL665) on the Envision 2104 plate reader.
Calculating the ratio of each hole (665 nm/615 nm).
as §10, §11, §12, §13, §14, §15

[3] = system: TT Cell; experiment: Cell inhibitory activity test (CCK8); assay type: cell-based; details: Table 3, 72 hours incubation
Protocol: Cell Inhibitory Activity Test
1. preparing 90 μl of cell suspension in a 96-well plate with 4000 cells/well. Pre-incubating the culture plate in an incubator for 24 hours (37° C., 5% CO2).
2. adding 10 μl of test compounds of different concentrations to each well of cells, and each compound has multiple wells.
3. incubating the culture plate in the incubator for 72 hours.
4. adding 10 μl of CCK8 solution to each well (be careful not to generate bubbles in the well, otherwise they would affect the reading of the OD value).
5. incubating the culture plate in the incubator for 1-2 hours.
6. measuring the absorbance at 450 nm with a microplate reader.
7. according to the compound concentration and absorbance value, GraphpadPrism software was used to calculate the IC50 of each compound.

[4] = system: RET wild-type, mutant and/or fusion-type; experiment: Overall statement on RET inhibitory activity (summary of Table 3); details: statement in words summarising Table 3
Source text: As shown in the above table, the example compounds of the present disclosure have improved inhibitory activity against RET wild-type, mutant and/or fusion-type.

T1 sequence (P07949 29-1114): as the sequence (P07949 29-1114 V804M) above, with M776V counted along it

IC50 [1] | IC50 [2] | Compound | IC50 [3] | inhibitory activity against RET wild-type, mutant and/or fusion-type [4] | IC50 ([3]; Homo sapiens, TT)
0.122 µM | 0.186 µM | CCOc1cc(-c2ccc(N3CC4CC(C3)N4Cc3ccc(OC)nc3)nc2)c2c(C#N)c(F)nn2c1 [APS096] |  |  | 
2.89 µM | 1.55 µM | COc1ccc(CN2C3CC2CN(c2ccc(-c4cc(OCC(C)(C)O)cn5nc(NC(C)=O)c(C#N)c45)cn2)C3)cn1 [APS093] |  |  | 
0.0017 µM |  | 2-amino-4-(6-(4-((2-fluorobenzyl)piperazine-6-(1-methyl-1H-pyrazol-4-yl)pyrazolo[1,5-a]pyridine-3-carbonitrile [APS015] | 0.0277 µM | excellent activity | 
0.0022 µM |  | Cc1cccnc1CN1CCN(c2ccc(-c3cc(-c4cnn(C)c4)cn4nc(N)c(C#N)c34)cn2)CC1 [APS022] |  | excellent activity | 0.0455 µM
0.0014 µM |  | Cc1ccnc(CN2CCN(c3ccc(-c4cc(-c5cnn(C)c5)cn5nc(N)c(C#N)c45)cn3)CC2)c1 [APS025] |  | excellent activity | 0.0382 µM
0.001 µM |  | Cn1cc(-c2cc(-c3ccc(N4CCN(Cc5cncc(F)c5)CC4)nc3)c3c(C#N)c(N)nn3c2)cn1 [APS014] |  | excellent activity | 0.0446 µM
0.0011 µM |  | Cn1cc(-c2cc(-c3ccc(N4CCN(Cc5cc(F)ccc5F)CC4)nc3)c3c(C#N)c(N)nn3c2)cn1 [APS020] |  | excellent activity | 0.0143 µM
 | 0.957 µM | COc1ccc(CN2C3CC2CN(c2ccc(-c4cc(OCC(C)(C)O)cn5nc(OC)c(C#N)c45)cn2)C3)cn1 [APS091, 6-(2-hydroxy-2-methylpropoxy)-2-methoxy-4-(6-(6-((6-methoxypyridin-3-yl)methyl)-3,6-diazabicyclo[3.1.1]heptan-3-yl)pyridin-3-yl)pyrazolo[1,5-a]pyridine-3-carbonitrile] |  |  | 
0.0014 µM |  | COc1cccc(CN2CCN(c3ccc(-c4cc(-c5cnn(C)c5)cn5nc(N)c(C#N)c45)cn3)CC2)c1 [APS026, 2-amino-4-(6-(4-(3-methoxybenzyl)piperazin-1-yl)pyridin-3-yl)-6-(1-methyl-1H-pyrazole-4-yl)pyrazolo[1,5-a]pyridine-3-carbonitrile] |  | excellent activity | 0.0181 µM
 |  | CCOc1cc(-c2ccc(N3CC4CC(C3)N4Cc3cncc(F)c3)nc2)c2c(C#N)c(N)nn2c1 [APS111, 2-amino-6-ethoxy-4-(6-(6-((5-fluoropyridin-3-yl)methyl)-3,6-diazabicyclo[3.1.1]heptane-3-yl)pyridin-3-yl)pyrazolo[1,5-a]pyridine-3-carbonitrile] |  | excellent activity | 0.0064 µM
 |  | COCCOc1cc(-c2ccc(N3CCN(Cc4ccc(OC)nc4)CC3)nc2)c2c(C#N)c(N)nn2c1 [APS100, 2-amino-6-(2-methoxyethoxy)-4-(6-(4-((6-methoxypyridin-3-yl)methyl)piperazin-1-yl)pyridine-3-yl)pyrazolo[1,5-a]pyridine-3-carbonitrile] |  | excellent activity | 0.0224 µM
 |  | COc1ccc(CN2C3CC2CN(c2ccc(-c4cc(OCCOC(C)C)cn5nc(N)c(C#N)c45)cn2)C3)cn1 [APS120, 2-amino-6-(2-isopropoxyethoxy)-4-(6-(6-((6-methoxypyridin-3-yl)methyl)-3,6-diazabicyclo [3.1.1]heptan-3-yl)pyridin-3-yl)pyrazolo[1,5-a]pyridine-3-carbonitrile] |  | excellent activity | 0.0169 µM
0.745 µM | 0.971 µM | COc1ccc(CN2C3CC2CN(c2ccc(-c4cc(OCC(C)(C)O)cn5nc(N)c(C(N)=O)c45)cn2)C3)cn1 [APS106] |  |  | 
0.0017 µM |  | Cn1cc(-c2cc(-c3ccc(N4CCN(Cc5ccccn5)CC4)nc3)c3c(C#N)c(N)nn3c2)cn1 [APS035, 2-amino-6-(1-methyl-1H-pyrazol-4-yl)-4-(6-(4-(4-(pyridin-2-yl)methyl)piperazin-1-yl)pyridin-3-yl)pyrazolo[1,5-a]pyridine-3-carbonitrile] |  | excellent activity | 0.0654 µM
 |  | COc1ccc(CN2CCN(c3ccc(-c4cc(-c5cnn(C)c5)cn5nc(N)c(C#N)c45)cn3)CC2)cn1 [APS068, 2-amino-4-(6-(4-((6-methoxypyridin-3-yl)methyl)piperazin-1-yl)pyridin-3-yl)-6-(1-methyl-1H-pyrazol-4-yl)pyrazolo[1,5-a]pyridine-3-carbonitrile] |  | excellent activity | 0.0113 µM
0.261 µM | 0.155 µM | COCCOc1cc(-c2ccc(N3CC4CC(C3)N4Cc3ccc(OC)nc3)nc2)c2c(C#N)c(NC(C)=O)nn2c1 [APS103] |  |  | 
0.0024 µM |  | Cn1cc(-c2cc(-c3ccc(N4CCN(Cc5ccccc5Cl)CC4)nc3)c3c(C#N)c(N)nn3c2)cn1 [APS027, 2-amino-4-(6-(4-(2-chlorobenzyl)piperazin-1-yl)pyridin-3-yl)-6-(1-methyl-1H-pyrazol-4-yl) pyrazolo[1,5-a]pyridine-3-carbonitrile] |  | excellent activity | 0.0857 µM
0.144 µM | 0.0856 µM | COCCOc1cc(-c2ccc(N3CC4CC(C3)N4Cc3ccc(OC)nc3)nc2)c2c(C#N)c(F)nn2c1 [APS098, 2-fluoro-6-(2-methoxyethoxy)-4-(6-(6-((6-methoxypyridin-3-yl)methyl)-3,6-diazabicyclo [3.1.1]heptan-3-yl)pyridin-3-yl)pyrazolo[1,5-a]pyridine-3-carbonitrile] |  |  | 
 |  | CCOc1cc(-c2ccc(N3CCN(Cc4ccc(OC)nc4)CC3)nc2)c2c(C#N)c(N)nn2c1 [APS099] |  | excellent activity | 0.0162 µM
0.001 µM |  | Cn1cc(-c2cc(-c3ccc(N4CCN(Cc5c(F)cccc5F)CC4)nc3)c3c(C#N)c(N)nn3c2)cn1 [APS024, 2-amino-4-(6-(4-(2,6-difluorobenzyl)piperazin-1-yl)pyridin-3-yl)-6-(1-methyl-1H-pyrazole-4-yl)pyrazolo[1,5-a]pyridine-3-carbonitrile] |  | excellent activity | 0.0071 µM

Compound | IC50 [1] | IC50 [2] | IC50 [3] | inhibitory activity against RET wild-type, mutant and/or fusion-type [4] | IC50 ([3]; Homo sapiens, TT)
Cn1cc(-c2cc(-c3ccc(N4CCN(Cc5cccc(F)c5)CC4)nc3)c3c(C#N)c(N)nn3c2)cn1 [APS019] | < 0.001 µM |  |  | excellent activity | 0.0078 µM
Cn1cc(-c2cc(-c3ccc(N4CC5CC(C4)N5Cc4ccccn4)nc3)c3c(C#N)c(N)nn3c2)cn1 [APS038, 2-amino-6-(1-methyl-1H-pyrazol-4-yl)-4-(6-(6-(pyridin-2-yl-methyl)-3,6-diazabicyclo[3.1.1]heptan-3-yl)pyridin-3-yl)pyrazolo[1,5-a]pyridine-3-carbonitrile] | 0.001 µM |  |  | excellent activity | 0.0377 µM
